Earlier results in patent publication US20130089611A1, “RASAGILINE CITRAMIDE” (TEVA PHARMACEUTICAL INDUSTRIES, LTD., priority 2011, published 2013).

Conditions: in vivo

absolute bioavailability: about 36%
SMILES: C#CCN[C@@H]1CCc2ccccc21 [rasagiline, R(+)-N-propargyl-1-aminoindan]
